Where two headings read alike, the source gives them in different places.

We go through 27 compounds from patent publication US8883782B2, “Spiro-tetracyclic ring compounds as beta-secretase modulators and methods of use” (Amgen Inc., priority 2010, dated 2014).

Assay [1] deals with Aβ40 in conditioned medium of cells stably expressing Amyloid Precursor Protein (APP). Briefly: In vitro BACE cell-based assay (Aβ40 in conditioned medium, sandwich ELISA). The note with it: Homo sapiens, read-out: HEK cell assay. The procedure, abridged: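 The sandwich ELISA pairs pAb40 capture (3 h, 4 °C) with 6E10 detection (2 h, 4 °C) and a streptavidin-europium TRF read-out. Supernatants come from APP-expressing cells grown in 10% FBS DMEM.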

Assay [2] concerns the target Beta Secretase enzyme (BACE) (Homo sapiens, UniProt P56817). Briefly: In vitro enzymatic BACE FRET (fluorescence resonance energy transfer) assay. The assay is classed as biochemical. The note with it: average IC50, enzyme assay; read-out: BACE 1 FRET assay. The procedure, abridged:
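Run in 0.05 M acetate pH 4.2 with 10% DMSO final and 100 uM genapol; started by adding 50 nM FRET peptide substrate (fluorophore and quencher flanking the cleavage site), incubated one hour, then stopped with Tris to neutral pH before reading fluorescence.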

[3] abbreviates: HEK293, average IC50, HEK cells.

Beta Secretase enzyme (BACE), sequence (P56817 46-501, species assumed): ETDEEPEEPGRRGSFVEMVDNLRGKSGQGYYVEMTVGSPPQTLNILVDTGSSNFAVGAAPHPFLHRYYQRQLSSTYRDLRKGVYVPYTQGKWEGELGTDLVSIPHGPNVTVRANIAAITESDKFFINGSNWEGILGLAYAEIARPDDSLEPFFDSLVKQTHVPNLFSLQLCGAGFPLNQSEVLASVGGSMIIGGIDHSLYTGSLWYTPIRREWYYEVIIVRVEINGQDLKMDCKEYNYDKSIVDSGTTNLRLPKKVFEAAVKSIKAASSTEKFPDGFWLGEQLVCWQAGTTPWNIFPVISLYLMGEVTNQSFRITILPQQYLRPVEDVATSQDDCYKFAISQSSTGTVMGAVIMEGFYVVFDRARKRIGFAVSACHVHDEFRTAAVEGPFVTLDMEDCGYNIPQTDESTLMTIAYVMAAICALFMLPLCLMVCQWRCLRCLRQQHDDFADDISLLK

Turning to `NC1=N[C@@]2(CO1)c1cc(Oc3cc(Cl)ccn3)ccc1Oc1c(F)cc(N3CCOCC3)cc12` [Example 1062, (4S)-7′-((4-chloro-2-pyridinyl)oxy)-4′-fluoro-2′-(4-morpholinyl)spiro[1,3-oxazole-4,9′-xanthen]-2-amine], the IC50 in assay [1] (HEK293, average IC50) was 374 nM; in assay [2], 22.3 nM.

As for `CC1(C#Cc2cc3c(nc2F)Oc2ccc(-c4cncc(F)c4)cc2[C@@]32COC(N)=N2)COC1` [Example 907, (5S)-2-fluoro-7-(5-fluoro-3-pyridinyl)-3-((3-methyl-3-oxetanyl)ethynyl)spiro[chromeno[2,3-b]pyridine-5,4′-[1,3]oxazol]-2′-amine], the IC50 in assay [1] (setting [3]) was found to be 23 nM; in assay [2] it was 1.1 nM.

Regarding `Cc1cccc(Oc2ccc3c(c2)[C@@]2(COC(N)=N2)c2cc(C4=CCOCC4)cc(F)c2O3)n1` [Example 1063, (4S)-2′-(3,6-dihydro-2H-pyran-4-yl)-4′-fluoro-7′-((6-methyl-2-pyridinyl)oxy)spiro[1,3-oxazole-4,9′-xanthen]-2-amine], the IC50 in assay [1] (HEK293, average IC50) turned out to be 751 nM; in assay [2], 33.7 nM.

In the case of `NC1=N[C@@]2(CO1)c1cc(-c3cccnc3F)ccc1Oc1c(F)cc(-c3ccnc(F)c3)cc12` [Example 451, (4S)-4′-fluoro-7′-(2-fluoro-3-pyridinyl)-2′-(2-fluoro-4-pyridinyl)spiro[1,3-oxazole-4,9′-xanthen]-2-amine], the IC50 in assay [1] (setting [3]) worked out at 10.3 nM; in assay [2], 0.5 nM.

`CC1(C#Cc2cnc3c(c2)[C@]2(COC(N)=N2)c2cc(-c4cnccn4)ccc2O3)COC1` [Example 168, (5S)-3-((3-methyl-3-oxetanyl)ethynyl)-7-(2-pyrazinyl)spiro[chromeno[2,3-b]pyridine-5,4′-[1,3]oxazol]-2′-amine]: the IC50 in assay [1] (HEK293, average IC50) came to 14.5 nM; in assay [2] it was 3.3 nM.

`N#Cc1cccc(-c2cc3c(cn2)Oc2c(F)cc(C4=CCOCC4)cc2[C@]32COC(N)=N2)c1` [Example 308, 3-((5S)-2′-amino-7-(3,6-dihydro-2H-pyran-4-yl)-9-fluorospiro[chromeno[2,3-c]pyridine-5,4′-[1,3]oxazol]-3-yl)benzonitrile]: the IC50 amounted to 117 nM in assay [1] (HEK293, average IC50) and 9.3 nM in assay [2].

Take `Cc1ccnc(Oc2ccc3c(c2)[C@@]2(COC(N)=N2)c2cc(N4CCOCC4)cc(F)c2O3)c1` [Example 1059, (4S)-4′-fluoro-7′-((4-methyl-2-pyridinyl)oxy)-2′-(4-morpholinyl)spiro[1,3-oxazole-4,9′-xanthen]-2-amine]: the IC50 came to 609 nM in assay [1] (HEK293, average IC50) and 33.9 nM in assay [2].

On to `NC1=N[C@]2(CO1)c1cc(-c3ccnc(F)c3)ccc1Oc1cnc(Cl)cc12` [Example 392, (5R)-3-chloro-7-(2-fluoro-4-pyridinyl)spiro[chromeno[2,3-c]pyridine-5,4′-[1,3]oxazol]-2′-amine], for which the IC50 in assay [1] (setting [3]) turned out to be 10000 nM; in assay [2], 5540 nM.

For the compound `CN(C)c1ccc(-c2cc3c(cn2)Oc2ccc(-c4cccnc4F)cc2[C@@]32COC(N)=N2)cc1` [Example 567, (5S)-3-(4-(dimethylamino)phenyl)-7-(2-fluoro-3-pyridinyl)spiro[chromeno[2,3-c]pyridine-5,4′-[1,3]oxazol]-2′-amine], the IC50 in assay [1] (setting [3]) worked out at 74.6 nM; in assay [2], 4.6 nM.

Take `CC1(C#Cc2cc(F)c3c(c2)C2(COC(N)=N2)c2cc(-c4cccnc4F)ncc2O3)COC1` (stereo not drawn) [Example 662, 9-fluoro-3-(2-fluoro-3-pyridinyl)-7-((3-methyl-3-oxetanyl)ethynyl)spiro[chromeno[2,3-c]pyridine-5,4′-[1,3]oxazol]-2′-amine]: the IC50 in assay [1] (setting [3]) was determined as 129 nM; in assay [2], 3.3 nM.

`Cc1ccn(-c2cnc3c(c2)[C@]2(COC(N)=N2)c2cc(-c4cccnc4F)ccc2O3)n1` [Example 1021, (5S)-7-(2-fluoro-3-pyridinyl)-3-(3-methyl-1H-pyrazol-1-yl)spiro[chromeno[2,3-b]pyridine-5,4′-[1,3]oxazol]-2′-amine]: the IC50 in assay [1] (HEK293, average IC50) was 119 nM; in assay [2], 3.5 nM.

In the case of `CC1(COc2cc3c(cc2F)Oc2ccc(-c4cncc(F)c4)cc2[C@@]32COC(N)=N2)COC1` [Example 327, (4S)-3′-fluoro-7′-(5-fluoro-3-pyridinyl)-2′-((3-methyl-3-oxetanyl)methoxy)spiro[1,3-oxazole-4,9′-xanthen]-2-amine], the IC50 came to 21.5 nM in assay [1] (HEK293, average IC50) and 4.1 nM in assay [2].

For `CC1(C)C[C@@H](c2cnc3c(c2)[C@]2(COC(N)=N2)c2cc(-c4cccc(Cl)c4)ccc2O3)CCO1` [Example 465, (5S)-7-(3-chlorophenyl)-3-((4S)-2,2-dimethyltetrahydro-2H-pyran-4-yl)spiro[chromeno[2,3-b]pyridine-5,4′-[1,3]oxazol]-2′-amine], the IC50 in assay [1] (setting [3]) came to 11.1 nM; in assay [2], 1.7 nM.

As to `Cc1cccc(Oc2ccc3c(c2)[C@@]2(COC(N)=N2)c2cc(N4CCOCC4)cc(F)c2O3)n1` [Example 1057, (4S)-4′-fluoro-7′-((6-methyl-2-pyridinyl)oxy)-2′-(4-morpholinyl)spiro[1,3-oxazole-4,9′-xanthen]-2-amine], the IC50 came out at 687 nM in assay [1] (HEK293, average IC50) and 73.2 nM in assay [2].

For `NC1=N[C@@]2(CO1)c1cc(-c3cccc(Cl)c3)ccc1Oc1cnc(C3CCOCC3)cc12` [Example 241, (5S)-7-(3-chlorophenyl)-3-(tetrahydro-2H-pyran-4-yl)spiro[chromeno[2,3-c]pyridine-5,4′-[1,3]oxazol]-2′-amine], the IC50 in assay [1] (HEK293, average IC50) turned out to be 62.9 nM; in assay [2] it was 3.4 nM.

For `Cn1cc(-c2cnc3c(c2)[C@]2(CSC(N)=N2)c2cc(-c4ccc(F)nc4)ccc2O3)cn1` [Example 962, (5S)-7-(6-fluoro-3-pyridinyl)-3-(1-methyl-1H-pyrazol-4-yl)spiro[chromeno[2,3-b]pyridine-5,4′-[1,3]thiazol]-2′-amine], the IC50 in assay [1] (setting [3]) came out at 65 nM; in assay [2], 5.4 nM.

As to `NC1=N[C@@]2(CO1)c1cc(-c3ccc(F)nc3)ccc1Oc1c(F)cc(N3C[C@@H]4C[C@H]3CO4)cc12` [Example 302, (4S)-4′-fluoro-7′-(6-fluoro-3-pyridinyl)-2′-((1S,4S)-2-oxa-5-azabicyclo[2.2.1]hept-5-yl)spiro[1,3-oxazole-4,9′-xanthen]-2-amine], the IC50 in assay [1] (HEK293, average IC50) worked out at 5.6 nM; in assay [2] it was 3.1 nM.

Regarding `NC1=N[C@@]2(CO1)c1cc(-c3cc(Cl)cnc3F)ccc1Oc1ncc(C3=CCOCC3)cc12` [Example 454, (5S)-7-(5-chloro-2-fluoro-3-pyridinyl)-3-(3,6-dihydro-2H-pyran-4-yl)spiro[chromeno[2,3-b]pyridine-5,4′-[1,3]oxazol]-2′-amine], the IC50 was found to be 3.2 nM in assay [1] (setting [3]) and 0.9 nM in assay [2].

Take `NC1=N[C@]2(CO1)c1cc(-c3cccnc3F)c(F)cc1Oc1c(F)cc(N3CCOCC3)cc12` [Example 870, (4R)-3′,5′-difluoro-2′-(2-fluoro-3-pyridinyl)-7′-(4-morpholinyl)spiro[1,3-oxazole-4,9′-xanthen]-2-amine]: the IC50 was 6570 nM in assay [1] (setting [3]) and 157 nM in assay [2].

In the case of `NC1=N[C@@]2(CO1)c1cc(-c3cccnc3)ccc1Oc1c2cc(-c2ccnc(F)c2)c(F)c1F` [Example 1013, (4S)-3′,4′-difluoro-2′-(2-fluoro-4-pyridinyl)-7′-(3-pyridinyl)spiro[1,3-oxazole-4,9′-xanthen]-2-amine], the IC50 was found to be 100 nM in assay [1] (HEK293, average IC50) and 2.4 nM in assay [2].

In the case of `NC1=N[C@@]2(CO1)c1cc(Br)ccc1Oc1c2cc(Cl)nc1F` [Example 487, (5S)-7-bromo-3-chloro-1-fluorospiro[chromeno[2,3-c]pyridine-5,4′-[1,3]oxazol]-2′-amine], the IC50 was found to be 740 nM in assay [1] (setting [3]) and 3680 nM in assay [2].

With `Cc1cc(-c2cc(F)c3c(c2)[C@]2(COC(N)=N2)c2cc(OCC4(C)COC4)ccc2O3)cnc1F` [Example 445, (4S)-4′-fluoro-2′-(6-fluoro-5-methyl-3-pyridinyl)-7′-((3-methyl-3-oxetanyl)methoxy)spiro[1,3-oxazole-4,9′-xanthen]-2-amine], the IC50 in assay [1] (setting [3]) is 188 nM; in assay [2], 41.6 nM.

`CC(C)(C#N)COc1cc(F)c2c(c1)[C@]1(COC(N)=N1)c1cc(-c3cncnc3)c(F)cc1O2` [Example 667, 3-(((4S)-2-amino-4′,6′-difluoro-7′-(5-pyrimidinyl)spiro[1,3-oxazole-4,9′-xanthen]-2′-yl)oxy)-2,2-dimethylpropanenitrile]: the IC50 in assay [1] (setting [3]) turned out to be 16 nM; in assay [2], 0.6 nM.

Regarding `Cc1nc(F)ccc1-c1ccc2c(c1)[C@@]1(COC(N)=N1)c1cc(-c3ccnc(F)c3)ncc1O2` [Example 252, (5S)-7-(6-fluoro-2-methyl-3-pyridinyl)-3-(2-fluoro-4-pyridinyl)spiro[chromeno[2,3-c]pyridine-5,4′-[1,3]oxazol]-2′-amine], the IC50 in assay [1] (HEK293, average IC50) amounted to 548 nM; in assay [2], 66.1 nM.

On to `NC1=N[C@@]2(CO1)c1cc(-c3cncc(C#CCO)c3)ccc1Oc1cnc(-c3ccnc(F)c3)cc12` [Example 825, 3-(5-((5S)-2′-amino-3-(2-fluoro-4-pyridinyl)spiro[chromeno[2,3-c]pyridine-5,4′-[1,3]oxazol]-7-yl)-3-pyridinyl)-2-propyn-1-ol], for which the IC50 amounted to 6 nM in assay [1] (HEK293, average IC50) and 0.3 nM in assay [2].

Consider `CCC(C)CSc1cnc2c(c1)[C@]1(COC(N)=N1)c1cc(-c3cccnc3)ccc1O2` (stereo partly drawn) [Example 99, (4′S)-3-(2-methylbutylthio)-7-(pyridin-3-yl)-5′H-spiro[chromeno[2,3-b]pyridine-5,4′-oxazol]-2′-amine], for which the IC50 was determined as 302 nM in assay [1] (HEK293, average IC50) and 17.3 nM in assay [2].

Take `N#Cc1cccc(-c2ccc3c(c2)[C@@]2(COC(N)=N2)c2cc(N4CCC(F)(F)CC4)nc(F)c2O3)c1` [Example 923, 3-((5S)-2′-amino-3-(4,4-difluoro-1-piperidinyl)-1-fluorospiro[chromeno[2,3-c]pyridine-5,4′-[1,3]oxazol]-7-yl)benzonitrile]: the IC50 in assay [1] (setting [3]) was 32 nM; in assay [2], 0.3 nM.
